The target of assay [1] is T1, ALK1 (Bos taurus, UniProt A4FUX2).
T1 construct: The BAOEC cell line was employed for the measurement of ALK1 activity using BMP9 as the agonist; host or cells: BAOEC (bovine aortic endothelial cells)
T1 sequence (A4FUX2 23-503): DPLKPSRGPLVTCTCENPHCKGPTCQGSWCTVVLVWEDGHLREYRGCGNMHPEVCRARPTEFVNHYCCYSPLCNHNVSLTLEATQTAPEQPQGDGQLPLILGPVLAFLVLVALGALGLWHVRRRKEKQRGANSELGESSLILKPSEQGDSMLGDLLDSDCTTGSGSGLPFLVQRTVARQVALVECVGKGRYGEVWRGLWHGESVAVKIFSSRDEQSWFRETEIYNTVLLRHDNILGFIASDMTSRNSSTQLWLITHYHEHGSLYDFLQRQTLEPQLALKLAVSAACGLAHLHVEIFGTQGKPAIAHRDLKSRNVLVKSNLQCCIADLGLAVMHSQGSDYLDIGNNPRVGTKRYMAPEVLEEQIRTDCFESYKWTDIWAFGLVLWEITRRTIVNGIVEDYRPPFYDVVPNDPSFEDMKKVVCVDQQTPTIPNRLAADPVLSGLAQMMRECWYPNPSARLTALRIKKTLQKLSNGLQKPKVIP
The experiment in a line: In-cell Western ALK1 assay (BAOEC cells, BMP9 as agonist). In kind it is cell-based, Bovine. As to conditions: read-out: BMP9 ICW. From the text: 3. In-Cell Western ALK1 and ALK2 Assays in 384-Well Plate Format.
We also optimized cell-based In-cell Western assays for measurements of ALK1 and ALK2 activities that were used to determine compound activities in these two kinases. The cell lines and agonists used were same as described in above cell-based HTRF ALK1 and ALK2 assays. The initial cell plating and compound treatment were also same. The main difference is the detection of phosphorylation status of SMAD1. In t-cell Western assay, the cells were fixed and phosphorylation status of SMAD1 was detected by the ELISA instead of using the HTRF assay kit in above assay.
C2C12 cells and RPMI 1640 medium were obtained from ATCC (Manassas, Va.) and Bovine Aortic endothelial Cells (BAOEC) and epithelial defined growth medium were purchased from Genlantis (San Deigo, Calif.). HyClone Fetal Bovine Serum was obtained from GE healthcare life sciences (Logan, Utah). BMP6 and BMP9 were purchased from R&D System (R&D). Anti-P-SMAD 1/5/8 rabbit mAb and anti-rabbit IgG, HRP-Linked antibody were purchased from Cell Signaling Technology (Danvers, Mass.). BioFX Chemiluminescent Ultra-Sensitive HRP Microwell Substrate ECL Reagent was obtained from SurModics (Edina, Minn.). The compound plates and the white solid MB assay plates were from Greiner Bio-one (Monroe, N.C.).
Similarly as described in above HTRF cell-based assay, this assay was performed in 384 well plate format. C2C12 were grown in T225 flasks were sterilely washed with 1×PBS pre-starved with medium containing 0.1% FBS for 20 hours. Pre-starved cells were then plated in 384 well plate in the starvation medium (containing in 0.1% FBS). After 4 hours, compound dilutions in DMSO were added to the assay plate and incubated for 30 minutes. The assay plate was then added with BMP6 for C2C12 cells or BMP9 for BAOEC cells and incubated for 30 minutes.
Cells were fixed with 50 ul ice-cold methanol and incubated for 15 min after removing the supernatant. The methanol was removed and filled with 0.5% glutaraldehyde and incubated at room temperature for 15 min. The cells were washed in the plate washer with PBS and blocked with 2% BSA in PBS for 1 h at room temperature on the rotator. After removing the blocking reagent, the cells were incubated with the anti-p-SMAD1 antibody in 2% BSA in PBS for overnight at 4° C. on rotator. The cells were washed with PBS in the plate washer and incubated with HRP conjugated second antibody in 2% BSA in PBS for 1 hour at room temperature. After a cell wash with PBS, ECL detection reagent was added and the plate was read in the luminesce mode in the ViewLux plate reader.

Assay [2] concerns the target ALK1 (Homo sapiens, UniProt P37023). The experiment in a line: TR-FRET enzymatic ALK kinase assay, ALK1. Background: TR-FRET usually uses a lanthanide donor and a delayed reading to cut background.
Procedure: (§1) Briefly, the ALKs enzymatic assay was initiated by dispense 2.5 μl enzyme in 1× kinase reaction buffer. The assay plate was then added with compounds followed by incubation at room temperature for 10 minutes. Then 2.5 μl/well substrate was added.
Assay [3] addresses T2, ALK4 (Homo sapiens, UniProt P36896).
T2 sequence (P36896 24-505): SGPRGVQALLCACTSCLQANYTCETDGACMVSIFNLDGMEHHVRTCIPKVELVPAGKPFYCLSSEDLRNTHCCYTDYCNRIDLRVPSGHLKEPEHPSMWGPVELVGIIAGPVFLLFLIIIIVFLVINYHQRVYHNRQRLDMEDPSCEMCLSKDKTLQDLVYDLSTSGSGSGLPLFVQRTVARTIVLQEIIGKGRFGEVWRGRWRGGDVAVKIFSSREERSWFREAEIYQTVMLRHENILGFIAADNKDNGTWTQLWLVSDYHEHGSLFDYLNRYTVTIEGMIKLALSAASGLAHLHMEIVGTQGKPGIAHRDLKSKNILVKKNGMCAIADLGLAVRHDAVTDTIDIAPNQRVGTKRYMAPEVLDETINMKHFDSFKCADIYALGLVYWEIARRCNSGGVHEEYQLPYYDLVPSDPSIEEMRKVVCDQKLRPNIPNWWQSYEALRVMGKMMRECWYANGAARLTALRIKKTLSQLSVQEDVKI
The experiment in a line: TR-FRET enzymatic ALK kinase assay, ALK4.
Procedure: as §1

Assay [4] addresses T3, ALK5 (Homo sapiens, UniProt P36897).
T3 sequence (P36897 34-503): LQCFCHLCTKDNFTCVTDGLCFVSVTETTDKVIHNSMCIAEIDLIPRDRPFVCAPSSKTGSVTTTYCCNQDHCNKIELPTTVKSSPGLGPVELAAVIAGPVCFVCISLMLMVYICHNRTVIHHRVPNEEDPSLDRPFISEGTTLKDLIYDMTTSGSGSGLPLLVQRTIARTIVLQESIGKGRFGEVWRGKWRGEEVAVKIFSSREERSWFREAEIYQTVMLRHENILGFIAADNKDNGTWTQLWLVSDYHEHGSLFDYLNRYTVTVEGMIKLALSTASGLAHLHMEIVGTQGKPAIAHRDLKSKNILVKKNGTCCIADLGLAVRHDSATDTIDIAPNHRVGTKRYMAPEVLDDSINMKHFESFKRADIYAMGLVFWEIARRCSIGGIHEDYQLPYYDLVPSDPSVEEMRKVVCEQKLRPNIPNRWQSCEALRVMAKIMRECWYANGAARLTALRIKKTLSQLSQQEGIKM
The experiment in a line: TR-FRET enzymatic ALK kinase assay, ALK5.
Procedure: Six ALK kinase enzyme assays were developed for determination of compound activities on ALK1, ALK2, ALK3, ALK4, ALK5 and ALK6.
as §1

Each structure is given as a SMILES string. Where “and” joins values, the source holds several entries; their conditions need not be identical. Identical values can stand only once.

Chain of ALK1 (Homo sapiens, UniProt P37023) (P37023 22-503): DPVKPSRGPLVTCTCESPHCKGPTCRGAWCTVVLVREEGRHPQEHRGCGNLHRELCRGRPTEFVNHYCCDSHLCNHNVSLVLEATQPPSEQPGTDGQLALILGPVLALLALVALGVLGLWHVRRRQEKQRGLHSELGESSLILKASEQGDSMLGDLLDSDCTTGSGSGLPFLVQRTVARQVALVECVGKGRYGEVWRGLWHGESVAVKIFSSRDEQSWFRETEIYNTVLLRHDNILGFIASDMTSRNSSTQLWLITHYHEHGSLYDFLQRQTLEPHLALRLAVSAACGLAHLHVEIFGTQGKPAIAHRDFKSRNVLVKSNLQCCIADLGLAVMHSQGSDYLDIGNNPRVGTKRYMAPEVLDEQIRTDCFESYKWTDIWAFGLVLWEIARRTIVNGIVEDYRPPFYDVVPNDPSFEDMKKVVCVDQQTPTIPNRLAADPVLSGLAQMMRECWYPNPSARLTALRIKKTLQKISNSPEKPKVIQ

Take `C[C@@H]1CNC[C@H](C)N1c1ccc(-c2cnc3c(-c4cccc(C[S+](C)(=O)[O-])c4)cnn3c2)cc1` [Compound 117, 6-(4-((2R,6S)-2,6-dimethylpiperazin-1-yl)phenyl)-3-(3-((methylsulfonyl)methyl)phenyl)pyrazolo[1,5-a]pyrimidine]: the IC50 in assay [1] is 2.4 µM; in assay [2], 0.2 µM; in assay [3] it was 8.5 µM; in assay [4], greater than 10 µM.
For `CC(C)(CN1CCCCC1)Oc1ccc(-c2cnc3c(-c4cccc5c(C(N)=O)cccc45)cnn3c2)cc1` [Compound 18, 5-(6-(4-((2-methyl-1-(piperidin-1-yl)propan-2-yl)oxy)phenyl)pyrazolo[1,5-a]pyrimidin-3-yl)-1-naphthamide], the IC50 in assay [1] turned out to be 0.026 µM; in assay [2], 0.016 µM; in assay [3], 2.34 µM; in assay [4], 13.5 µM.
With `CC(C)S(=O)(=O)c1cccc(-c2cnn3cc(-c4ccc(CCN5CCCCC5)cc4)cnc23)c1` [Compound 113, 3-(3-(isopropylsulfonyl)phenyl)-6-(4-(2-(piperidin-1-yl)ethyl)phenyl)pyrazolo[1,5-a]pyrimidine], the IC50 in assay [2] was 0.5 µM; in assay [3], greater than 10 µM; in assay [4], greater than 10 µM.
On to `C[C@@H]1CNC[C@H](C)N1c1ccc(-c2cnc3c(-c4cccc(C(C)(C)O)c4)cnn3c2)cc1` [Compound 103, 2-(3-(6-(4-((2R,6S)-2,6-dimethylpiperazin-1-yl)phenyl)pyrazolo[1,5-a]pyrimidin-3-yl)phenyl)propan-2-ol], for which the IC50 was 1.4 µM and 0.56 µM and 1 µM and 0.76 µM and 1.5 µM and 0.31 µM and 0.83 µM in assay [1]; 0.029 µM in assay [2]; 4.2 µM in assay [3]; greater than 10 µM in assay [4].
Consider `CC(C)S(=O)(=O)c1cccc(-c2cnn3cc(-c4ccc(N5[C@H](C)CNC[C@@H]5C)cc4)cnc23)c1` [Compound 114, 6-(4-((2R,6S)-2,6-dimethylpiperazin-1-yl)phenyl)-3-(3-(isopropylsulfonyl)phenyl)pyrazolo[1,5-a]pyrimidine], for which the IC50 is 0.067 µM in assay [2], 4.1 µM in assay [3] and greater than 10 µM in assay [4].
Take `CS(=O)(=O)c1cccc(-c2cnn3cc(-c4ccc(CN5CCCCC5)cc4)cnc23)c1` [Compound 123, 3-(3-(methylsulfonyl)phenyl)-6-(4-(piperidin-1-ylmethyl)phenyl)pyrazolo[1,5-a]pyrimidine]: the IC50 in assay [2] is 0.21 µM; in assay [3], greater than 10 µM; in assay [4] it was greater than 10 µM.
As for `C[S+](=O)([O-])c1cccc(-c2cnn3cc(-c4ccc(OC5(CN6CCCCC6)COC5)cc4)cnc23)c1` [Compound 93, 3-(3-(methylsulfonyl)phenyl)-6-(4-((3-(piperidin-1-ylmethyl)oxetan-3-yl)oxy)phenyl)pyrazolo[1,5-a]pyrimidine], the IC50 in assay [1] is 3.3 µM and 1.4 µM and 3 µM and 3.8 µM and 3.6 µM and 1.2 µM and 1.9 µM; in assay [2], 0.1 µM; in assay [3], greater than 10 µM; in assay [4], greater than 10 µM.
For `CC1(c2ccc(-c3cnc4c(-c5cccc(S(C)(=O)=O)c5)cnn4c3)cc2)CCNCC1` [Compound 115, 6-(4-(4-methylpiperidin-4-yl)phenyl)-3-(3-(methylsulfonyl)phenyl)pyrazolo[1,5-a]pyrimidine], the IC50 in assay [1] was 1.5 µM; in assay [2], 0.11 µM; in assay [3] it was 9.1 µM; in assay [4] it was greater than 10 µM.
Consider `CS(=O)(=O)c1cccc(-c2cnn3cc(-c4ccc(OCCN5CCCC5)cc4)cnc23)c1` [Compound 108, 3-(3-(methylsulfonyl)phenyl)-6-(4-(2-(pyrrolidin-1-yl)ethoxy)phenyl)pyrazolo[1,5-a]pyrimidine], for which the IC50 in assay [1] was 3.9 µM; in assay [2], 0.39 µM; in assay [3] it was greater than 10 µM; in assay [4], greater than 10 µM.
With `NS(=O)(=O)c1ccc(-c2cnn3cc(-c4ccc(CCN5CCCCC5)cc4)cnc23)c2ccccc12` [Compound 54, 4-(6-(4-(2-(piperidin-1-yl)ethyl)phenyl)pyrazolo[1,5-a]pyrimidin-3-yl)naphthalene-1-sulfonamide], the IC50 in assay [2] is 0.38 µM; in assay [3], greater than 10 µM; in assay [4] it was greater than 10 µM.
With `C[S+](=O)([O-])c1cccc(-c2cnn3cc(-c4ccc(OCCN5CCCCC5)cc4)cnc23)c1` [Compound 109], the figures for the IC50 in assay [2], in assay [3] and in assay [4] were 0.39 µM, greater than 10 µM and greater than 10 µM, respectively.
Take `CC(O)c1cccc(-c2cnn3cc(-c4ccc(N5[C@H](C)CNC[C@@H]5C)cc4)cnc23)c1` (stereo partly drawn) [Compound 83, 1-(3-(6-(4-((2R,6S)-2,6-dimethylpiperazin-1-yl)phenyl)pyrazolo[5-a]pyrimidin-3-yl)phenyl)ethanol]: the IC50 in assay [1] was 1.4 µM and 1.2 µM and 1.5 µM and 1.8 µM and 2.6 µM and 0.69 µM and 0.77 µM and 1.6 µM; in assay [2] it was 0.057 µM; in assay [3], 4.4 µM; in assay [4], greater than 10 µM.
In the case of `C[C@@H]1CNC[C@H](C)N1c1ccc(-c2cnc3c(-c4cccc(S(C)(=O)=O)c4)cnn3c2)cc1` [Compound 82, 6-(4-((2R,6S)-2,6-dimethylpiperazin-1-yl)phenyl)-3-(3-(methylsulfonyl)phenyl)pyrazolo[1,5-a]pyrimidine], the IC50 is 1.5 µM (2×) and 1 µM and 1.3 µM and 1.8 µM and 360 nM and 960 nM and 2 µM in assay [1]; 0.03 µM in assay [2]; 3.2 µM in assay [3]; greater than 10 µM in assay [4].
Take `CC(O)c1cccc(-c2cnn3cc(-c4ccc(OC5(CN6CCCCC6)CC5)cc4)cnc23)c1` (centres unmarked) [Compound 143, 1-(3-(6-(4-(1-(piperidin-1-ylmethyl)cyclopropoxy)phenyl)pyrazolo[1,5-a]pyrimidin-3-yl)phenyl)ethanol]: the IC50 in assay [2] was 0.33 µM; in assay [3], greater than 10 µM; in assay [4], greater than 10 µM.

The record behind these values is US10513521B2, “Compositions and methods for inhibiting BMP” (The Brigham and Women's Hospital, Inc., priority 2014, dated 2019).
